Laboratory results from ChEMBL document CHEMBL1201862, “PubChem BioAssay data set” (2004).
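Where inhibition never reached the appropriate level, the endpoint shown equals the highest concentration tested. Otherwise, values were interpolated linearly from a five-concentration, 48-hour dose response in 96-well plates. GI50 marks 50% less growth.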 The source made the active and inactive calls. No stated cut-off is given here; in the data, active = GI50 up to about 1.1 µM and inactive = higher.

What was measured:
Assay in all cases: NCI anticancer screen, dose series, 48 h
LXFL 529 = test system: LXFL 529
DLD-1 = test system: DLD-1
SNB-78 = test system: SNB-78
M19-MEL = test system: M19-MEL
KM-20L2 = test system: KM-20L2
RXF 631 = test system: RXF 631
HOP-18 = test system: HOP-18
DMS-273 = test system: DMS-273
XF498 = test system: XF498

Row | SMILES | GI50 (LXFL 529) | GI50 (DLD-1) | GI50 (SNB-78) | GI50 (M19-MEL) | GI50 (KM-20L2) | GI50 (RXF 631) | GI50 (HOP-18) | GI50 (DMS-273) | GI50 (XF498)
1 | Cc1ccc(S(=O)(=O)NC2(C=O)CCCC3CCCCC32)cc1 (configuration not stated) | > 100 µM (inactive) | > 100 µM (inactive) | > 100 µM (inactive) | > 100 µM (inactive) | > 100 µM (inactive) | > 100 µM (inactive) | > 100 µM (inactive) | > 100 µM (inactive) | 
2 | CCC(CC)NC1=C(NC(C)=O)C(=O)c2ccccc2C1=O | > 50 µM (inactive) | > 50 µM (inactive) | > 50 µM (inactive) | > 50 µM (inactive) | > 50 µM (inactive) |  |  | > 50 µM (inactive) | > 50 µM (inactive)
3 | C=CCCC(C)N(C(=O)OC(C)(C)C)S(=O)(=O)c1ccc(C)cc1 (configuration not stated) | > 100 µM (inactive) | > 100 µM (inactive) | > 100 µM (inactive) |  | > 100 µM (inactive) |  |  | > 100 µM (inactive) | > 100 µM (inactive)
4 | CCN(CC)CCNc1ccc(C)c2sc3ccc(O)cc3c(=O)c12 | 1.28 µM (inactive) | 1.66 µM (inactive) | 1.76 µM (inactive) | 1.1 µM (active) | 2.14 µM (inactive) |  | 1.34 µM (inactive) | 0.162 µM (active) | 1.2 µM (inactive)
5 | NC(CCCC(N)P(=O)(O)c1ccccc1)P(=O)(O)c1ccccc1 (configuration not stated) | > 261 µM (inactive) | > 261 µM (inactive) | > 261 µM (inactive) | > 261 µM (inactive) | > 261 µM (inactive) |  | > 261 µM (inactive) | > 261 µM (inactive) | > 261 µM (inactive)
6 | Oc1nc(CC(O)c2ccc(Cl)c(Cl)c2)cc(-c2ccccc2)n1 (configuration not stated) | > 100 µM (inactive) | > 100 µM (inactive) |  | 44.3 µM (inactive) | 60 µM (inactive) |  | > 100 µM (inactive) | > 100 µM (inactive) | 
7 | CCOC(=O)/C(=C/c1ccc(N(C)C)cc1)N(CC)CC | 34.6 µM (inactive) |  | 69.3 µM (inactive) | 24.6 µM (inactive) | > 100 µM (inactive) |  |  |  | > 100 µM (inactive)
8 | CCN1CCC(O)(/C=C/c2ccccc2)C(C(=O)/C=C/c2ccccc2)C1 (configuration not stated) | 1.87 µM (inactive) | 2.08 µM (inactive) | 3.33 µM (inactive) | 1.99 µM (inactive) | 2.62 µM (inactive) | 4.1 µM (inactive) | 5.64 µM (inactive) | 1.68 µM (inactive) | 5.65 µM (inactive)
9 | COC(=O)c1ccc(/C=C/S(=O)(=O)c2ccccc2)cc1 | > 100 µM (inactive) | > 100 µM (inactive) | > 100 µM (inactive) | > 100 µM (inactive) | > 100 µM (inactive) | > 100 µM (inactive) |  | > 100 µM (inactive) | > 100 µM (inactive)
10 | O=C1C(=O)C2(CC1S(=O)(=O)c1ccccc1)c1ccccc1-c1ccccc12 (configuration not stated) | 16.3 µM (inactive) | 24.8 µM (inactive) | 17.5 µM (inactive) |  | 44 µM (inactive) |  | > 10 µM (inactive) | 19.5 µM (inactive) | 
11 | Cc1ccc(C2[C@H]3C(=O)N(c4ccc(Cc5ccc(N6C(=O)[C@@H]7ON(c8ccccc8)C(c8ccc(C)cc8)[C@@H]7C6=O)cc5)cc4)C(=O)[C@H]3ON2c2ccccc2)cc1 (some centres not stated) | > 100 µM (inactive) | > 100 µM (inactive) |  | > 100 µM (inactive) | > 100 µM (inactive) |  | > 100 µM (inactive) | > 100 µM (inactive) | > 100 µM (inactive)
12 | O=C1NC(=O)C(C(=O)C(=O)Nc2cc(Cl)ccc2Cl)C(=O)N1 | > 100 µM (inactive) | > 100 µM (inactive) | > 100 µM (inactive) | > 100 µM (inactive) | > 100 µM (inactive) | > 100 µM (inactive) |  |  | 
13 | COC(=O)C1=C(C)N(NC(=O)Nc2ccccc2)C2(N)N(NC(=O)Nc3ccccc3)C(C)=C(C(=O)OC)C12C(=O)OC (configuration not stated) | 62.5 µM (inactive) | 55.7 µM (inactive) | 26.1 µM (inactive) | 25.1 µM (inactive) | > 100 µM (inactive) |  | 81.8 µM (inactive) | 40.3 µM (inactive) | 
14 | O=C(Nc1ccccc1SC(/C=C/NNC1=NN=C(c2ccccc2)C(c2ccccc2)N1)c1ccccc1)c1ccc(Cl)cc1Cl (configuration not stated) |  | 49.2 µM (inactive) | 87.5 µM (inactive) | 44.3 µM (inactive) | > 100 µM (inactive) |  |  | 41.6 µM (inactive) | > 10 µM (inactive)
15 | COc1ccc(NC(=O)CC(=O)N/N=C/c2ccc(N(CCC#N)S(C)(=O)=O)cc2)cc1 | > 100 µM (inactive) | > 100 µM (inactive) | > 100 µM (inactive) | > 100 µM (inactive) | > 100 µM (inactive) | > 100 µM (inactive) | > 100 µM (inactive) | > 100 µM (inactive) | 
16 | CC1(C)N=C(N)N=C(N)N1c1ccc(CCCCc2ccc(S(=O)(=O)F)cc2Cl)c(Cl)c1 |  | 1.57 µM (inactive) | 11.6 µM (inactive) |  | 6.76 µM (inactive) |  | 53.7 µM (inactive) | 0.352 µM (active) | 1.49 µM (inactive)

Row | SMILES | GI50 (LXFL 529) | GI50 (DLD-1) | GI50 (SNB-78) | GI50 (M19-MEL) | GI50 (KM-20L2) | GI50 (RXF 631) | GI50 (HOP-18) | GI50 (DMS-273) | GI50 (XF498)
17 | c1cc2c(ncc3cscc32)s1 | > 100 µM (inactive) | > 100 µM (inactive) | > 100 µM (inactive) | > 100 µM (inactive) |  | > 100 µM (inactive) |  | > 100 µM (inactive) | > 100 µM (inactive)
18 | CC(=O)Nc1ccc(C2C(C(=O)Nc3ccccc3C)=C(C)NC(C)=C2C(=O)Nc2ccccc2C)cc1 | > 100 µM (inactive) | > 100 µM (inactive) | > 100 µM (inactive) | > 100 µM (inactive) | > 100 µM (inactive) | > 100 µM (inactive) | > 100 µM (inactive) | > 100 µM (inactive) | > 100 µM (inactive)
19 | CC(=O)O[C@]12CCCCC1C1(O)C(O)CCCC[C@H]12 (some centres not stated) | > 100 µM (inactive) |  | > 100 µM (inactive) | > 100 µM (inactive) | > 100 µM (inactive) |  | > 100 µM (inactive) | > 100 µM (inactive) | 
20 | CCOC(=O)CCC(NC(=O)c1ccc(NCc2ccc3nc(-c4ccccc4)c(Cl)nc3c2)cc1)C(=O)OCC (configuration not stated) | 18.2 µM (inactive) | 28.6 µM (inactive) | 32.4 µM (inactive) | 17.4 µM (inactive) | 80.5 µM (inactive) | 13.2 µM (inactive) |  | 21.4 µM (inactive) | 1.58 µM (inactive)
21 | NC(=O)C(=O)N/N=C(\CC1(O)C(=O)Nc2ccccc21)c1ccc2ccccc2c1 (configuration not stated) | 31.5 µM (inactive) | 37.8 µM (inactive) | 72.9 µM (inactive) | 25.2 µM (inactive) |  |  | 46.3 µM (inactive) | 28.2 µM (inactive) | 30.5 µM (inactive)
22 | CC(=O)OC12C=CC(=O)N1c1ccccc1C(=O)O2 (configuration not stated) | > 100 µM (inactive) | > 100 µM (inactive) | 32.1 µM (inactive) | > 100 µM (inactive) | > 100 µM (inactive) |  | > 100 µM (inactive) | > 100 µM (inactive) | > 100 µM (inactive)
23 | O=C1c2ccccc2C(=O)N1CCN(CCN1C(=O)c2ccccc2C1=O)Cn1cccn1 | > 100 µM (inactive) | 31.9 µM (inactive) | > 100 µM (inactive) | 69.8 µM (inactive) | > 100 µM (inactive) | 29 µM (inactive) |  | 46.1 µM (inactive) | > 100 µM (inactive)
24 | CCc1c(-c2coc(CC/C(C)=C/c3ccccc3)n2)oc(OC)c(C)c1=O | 5.96 µM (inactive) | 26.8 µM (inactive) | 53.3 µM (inactive) | 31.8 µM (inactive) | 28.5 µM (inactive) |  | > 57.3 µM (inactive) | 10.1 µM (inactive) | 17.7 µM (inactive)
25 | CCC1(CN(C)C)CC/C(=C\c2ccc3c(c2)OCO3)C1=O (configuration not stated) | > 100 µM (inactive) | 82.2 µM (inactive) | > 100 µM (inactive) | > 100 µM (inactive) | 47.2 µM (inactive) | > 100 µM (inactive) | > 100 µM (inactive) | > 100 µM (inactive) | 
26 | NC(=O)c1[nH]nc(C2OC(CO)C(O)C2O)c1O (configuration not stated) |  | 1.45 µM (inactive) | 37.7 µM (inactive) | 13.2 µM (inactive) | 2.76 µM (inactive) |  | 43 µM (inactive) | 0.713 µM (active) | 71.9 µM (inactive)
27 | Cc1cc(NS(=O)(=O)c2ccc(Nc3c4ccccc4nc4c(C(=O)NCCN(C)C)cccc34)cc2)no1 | 3.6 µM (inactive) | 11.8 µM (inactive) | 12.7 µM (inactive) | 12.5 µM (inactive) | 26.4 µM (inactive) |  |  | 2.86 µM (inactive) | 18.3 µM (inactive)
28 | C=CC1(C)CCC(C(C)C(=O)C(C=C(C)C)OC(C)=O)C12C(=O)Oc1ccccc1C2=O (configuration not stated) | 37.8 µM (inactive) | 54.5 µM (inactive) | 79.4 µM (inactive) | 26.2 µM (inactive) | 51.3 µM (inactive) |  | 95.3 µM (inactive) | 23.4 µM (inactive) | 54 µM (inactive)
29 | COC(=O)C1[C@@H](C(=O)OC)C12C=Cc1ccccc1C=C2 (some centres not stated) | > 100 µM (inactive) | > 100 µM (inactive) | > 100 µM (inactive) | > 100 µM (inactive) | > 100 µM (inactive) |  |  | > 100 µM (inactive) | 51.6 µM (inactive)
30 | COC(=O)C1C(=O)O[C@@H](c2ccc(OC)cc2OC)C1C(=O)OC (some centres not stated) | > 100 µM (inactive) | > 100 µM (inactive) | > 100 µM (inactive) | > 100 µM (inactive) | > 100 µM (inactive) |  | > 100 µM (inactive) | > 100 µM (inactive) | > 100 µM (inactive)
31 | CC1C=C[C@H](Sc2ccccc2)CC[C@@]1(C)O (some centres not stated) | 99.3 µM (inactive) | > 100 µM (inactive) | > 100 µM (inactive) | > 100 µM (inactive) | > 100 µM (inactive) |  |  |  | 
